Experimental data: patent publication US20190070140A1, “COMPOSITION COMPRISING PROTECTIN DX AS ACTIVE INGREDIENT FOR PREVENTING OR TREATING HYPERLIPIDEMIA OR FATTY LIVER DISEASE” (Solvit P&F, priority 2017, published 2019)

How the values were obtained:
[1] = system: SREBP1, FAS and SCD1; assay: Western-blot assay of adipogenesis-related genes in palmitate-treated HepG2 cells; type: cell-based, Human
Protocol: Human liver cells, that is, HepG2 cells (ATCC, Manassas, Va., USA) were cultured in high-glucose Dulbecco's modified eagle medium (DMEM, Invitrogen, Carlsbad, Calif., USA), which includes 10% fetal bovine serum (FBS, Invitrogen), 100 units/mL of penicillin and 100 μg/ml of streptomycin. The cells were incubated at 37° C. under a condition of 5% CO2.
Mycoplasma was not detected in HepG2 cells. PDX (Cayman Chemical, Ann Arbor, Mich., USA) was dissolved in ethanol. Sodium palmitate (Sigma, St. Louis, Mo., USA) was mixed with 2% BSA (fatty acid free level; Sigma) in DMEM. […] In all experiments, the cells were treated with palmitate-BSA and PDX for 24 hours, while 2% BSA-ethanol was used as a control group.
After collecting HepG2 cells, protein was extracted from the cells with a buffer (PRO-PREF; Intron Biotechnology, Seoul, Korea) at 4° C. for 1 hour. A protein sample (35 μg) was applied to 12% SDS-PAGE, transferred to a nitrocellulose film (Amersham Bioscience, Westborough, Mass., USA), detected with a primary antibody, followed by probing with a secondary antibody and another secondary antibody conjugated with horseradish […] (Santa Cruz Biotechnology). The sample was detected by ECL kit.
Under 70% comfluency, 0 to 20 nmol/L […] (si)RNA oligonucleotide to ORP150 purchased from Santa Cruz Biotechnology was transfected to inhibit gene expression. Scramble siRNA was used as a control group. 2 or 4 μg of pCMV3-ORP150 (Sino Biological, Beijing, China) was transiently transfected, leading to over-expression of ORP150. pCMV3 empty-vector was used as a control group. According to instruction of the manufacturer, transfection was executed using lipofectamine 2000 (Invitrogen).
The present inventors have executed western-blot assay of SREBP1 expression in HepG2 cells that were treated with 200 μM palmitate and/or with 0 to 4 μg of ORP150 for 24 hours.

[2] = system: SREBP1, FAS and SCD1; assay: Western-blot assay of adipogenesis-related genes in livers of HFD mice; type: in vivo, mouse; details: PDX i.p. 1 μg/mice/day for 8 weeks, vs HFD, FIG. 5B
Protocol: The present study has received the approval of the Institutional Animal Review Committee (Institutional Animal Care and Use Committee in Korea University, Seoul, Korea). The animal experiment was conducted according to the Guide for Care and Use of Laboratory Animals (NH publication, 8th Ed., 2011). A control group and a group of male C57BL/6J(B6) mice at 8 weeks of age were subjected to a normal diet (ND, Brogaarden, Gentofte, Denmark) and a high fat diet (HFD, Research Diets, New Brunswick, N.J., USA) for 8 weeks, respectively. The HFD (high fat diet) group was provided with intra-peritoneal injection of PDX for 8 weeks (1 μg/mice/day). An ethanol injection group was used as a control group. […] A protein sample (35 μg) was applied to 12% SDS-PAGE, transferred to a nitrocellulose film (Amersham Bioscience, Westborough, Mass., USA), detected with a primary antibody, followed by probing with a secondary antibody and another secondary antibody conjugated with horseradish […] (Santa Cruz Biotechnology). The sample was detected by ECL kit. The present inventors have assessed PDX effects upon lipid accumulation in a mouse. For this purpose, a liver cut section from a mouse was subjected to histological assay and western-blot assay through H&E staining and Oil-Red-O staining, while TG accumulation was measured using a TG analysis kit.

[3] = system: FOXO1; assay: Western-blot assay of FOXO1 acetylation in HepG2 cells (immuno-precipitation); type: cell-based, Human; details: 0 to 2 μM PDX, 24 hours, FIG. 3B
Protocol: After collecting HepG2 cells, protein was extracted from the cells with a buffer (PRO-PREF; Intron Biotechnology, Seoul, Korea) at 4° C. for 1 hour. A protein sample (35 μg) was applied to 12% SDS-PAGE, transferred to a nitrocellulose film (Amersham Bioscience, Westborough, Mass., USA), detected with a primary antibody, followed by probing with a secondary antibody and another secondary antibody conjugated with horseradish […] (Santa Cruz Biotechnology). The sample was detected by ECL kit. Whole protein of HepG2 cell was extracted using an immune-precipitation buffer (IP buffer: 50 mM Tris-HCl, pH 7.8, 150 mM NaCl, 1% IGEPAL CA630) and then diluted to a concentration of 1 mg/mL. A polyclonal antibody to FOXO1 (Santa Cruz Biotechnology) diluted 1:150 was added to the mixture and the sample was incubated at 4° C. overnight. After incubation, each of the samples was provided with 50 μL of a protein A/G-Sepharose bead suspension (Santa Cruz Biotechnology), followed by gently mixing the same at 4° C. for 1 hour. The treated samples were subjected to centrifugation at 12,000 rpm for 30 seconds; and the beads were washed in IP buffer three times. The isolated beads were suspended again in 1×SDS-PAGE loading buffer, heated at 95° C. for 5 minutes, followed by vortexing and flash-centrifugation. […]

[4] = system: ORP150; assay: Western-blot assay of ORP150 in HepG2 cells; type: cell-based, Human; details: 2 μm PDX, 24 hours, FIG. 3A
Protocol: After collecting HepG2 cells, protein was extracted from the cells with a buffer (PRO-PREF; Intron Biotechnology, Seoul, Korea) at 4° C. for 1 hour. A protein sample (35 μg) was applied to 12% SDS-PAGE, transferred to a nitrocellulose film (Amersham Bioscience, Westborough, Mass., USA), detected with a primary antibody, followed by probing with a secondary antibody and another secondary antibody conjugated with horseradish […] (Santa Cruz Biotechnology). The sample was detected by ECL kit. Under 70% comfluency, 0 to 20 nmol/L […] (si)RNA oligonucleotide to ORP150 purchased from Santa Cruz Biotechnology was transfected to inhibit gene expression. Scramble siRNA was used as a control group. 2 or 4 μg of pCMV3-ORP150 (Sino Biological, Beijing, China) was transiently transfected, leading to over-expression of ORP150. pCMV3 empty-vector was used as a control group. According to instruction of the manufacturer, transfection was executed using lipofectamine 2000 (Invitrogen). The present inventors have executed western-blot assay of ORP150 in HepG2 cells transfected with scramble siRNA or siFOXO1 in the presence of 2 μm of PDX for 24 hours.

[5] = system: influenza virus; details: through RNA export system; reported; cited from earlier work

CC/C=C\C[C@H](O)/C=C/C=C\C=C\[C@@H](O)C/C=C\C/C=C\CCC(=O)O [PDX, 10S,17S-dihydroxy-docosa-4Z,7Z,11E,13Z,15E,19Z-hexaeonic acid]
expression of adipogenesis-related genes including SREBP1, FAS and SCD1 ([1]; 24 hours, FIG. 1B): inhibited
expression of adipogenesis-related genes SREBP1, FAS and SCD1 ([1]; scramble siRNA, PDX administration, FIG. 2C): inhibited
PDX effects of inhibiting the expression of adipogenesis-related genes ([1]; silencing ORP150, FIG. 2C): significantly reduced
expression of adipogenesis-related genes SREBP1, FAS and SCD1 in the liver [2]: significantly reduced
PDX effects of reducing FOXO1 acetylation ([3]; HepG2 cells transfected with AMPK siRNA): inhibited
FOXO1 acetylation ([3]; HepG2 cells, scramble siRNA): reduced depending upon PDX concentration
PDX effects of promoting ORP150 expression ([4]; HepG2 cells transfected with FOXO1 siRNA): inhibited
ORP150 expression level ([4]; HepG2 cells, scramble siRNA): increased
replication of influenza virus [5]: inhibits
